Assay results taken from patent publication US20130171067A1, “[…]-99m COMPLEX AS A TOOL FOR THE IN VIVO DIAGNOSIS OF CANCEROUS TUMOURS” (PIERRE FABRE MEDICAMENT, priority 2010, published 2013).
Counter-ions that a name gives are not always drawn.

Legend:
[1] = mouse, in vivo
[2] = system: B16 cells; experiment: In vitro incorporation in cells with spermine competition (gamma counter); format: cell-based, mouse; conditions: 30 minutes incubation, 0.2 μM complex, increasing concentration of spermine, FIG. 1
Method: (§1) A549 and B16 cells were placed in culture in 24-well plates (2.10^5 cells/well). After 24 hours, the cells were incubated for 30 minutes with the complex having formula (II) at various concentrations or with 0.2 μM of complex having formula (II) optionally in the presence of an increasing concentration of spermine used for evaluating competition with the probe. After incubation, the plates were placed on ice and the cells were rinsed with cold 0.9% NaCl supplemented with 1 mM of spermidine. The cells received a treatment with trypsin. They were suspended in PBS. The activity of each well was measured using a gamma counter.

[3] = Plasmatic stability after intravenous injection (radio-HPLC of serum); format: in vivo, mice
Method: 14.8 MBq of complex having formula (II) were injected intravenously to healthy male C57BL/6 mice. 30 minutes, 1 h, 2 h, 3 h and 5 hours post-injection, blood samples on heparin were taken from the retro-orbital cavity. These samples were then centrifuged for 5 minutes to collect at least 100 μL of serum. 50 enabled exclusion-diffusion radio-HPLC on a TSK SW2000 column+7.8*300 mm 5μ pre-column (Tosoh bioscience) with a mobile phase (flow rate of 1. ml/min at ambient temperature) consisting of 0.9% NaCl (100%). Macaque albumin labelled with ^99mTc was used to test the albumin retention time. The remaining 50 μL of serum was used to perform reverse-phase radio-HPLC, after protein denaturation with acetonitrile, on an XBridge C8 4.6*250 mm 5μ column (Waters, USA) with a mobile phase (flow rate of 1 ml/min at ambient temperature) consisting of water (55%), acetonitrile (45%) and TFA (0.1%).

[4] = system: A549 cells; experiment: In vitro incorporation in cells with spermine competition (gamma counter); format: cell-based; conditions: 30 minutes incubation, 0.2 μM complex, increasing concentration of spermine, FIG. 1
Method: as §1

[5] = Biodistribution in healthy mice; conditions: C57BL/6 mice, intravenous, 30 min to 24 hours post-injection
[6] = system: B16/F10 mouse melanoma cells; experiment: Tumour fixation, full-body scintigraphy of mice grafted with B16/F10 tumours (tumour-to-muscle ratio, spermine competition); format: in vivo; conditions: protocol of example 30, 1)
Method: 10 days post-grafting, the radiolabelled probe was injected into the mice. Imaging was performed according to the protocol described in example 24 above.
B16/F10 mouse melanoma cells (2.5.10^5 cells) were injected subcutaneously in the right back paw of male C57BL/6 mice. 10 days post-grafting, the complex having formula (II) (14.8 MBq) was injected into 18 mice, 400 μg of spermine having been previously injected into 8 of these mice. Full-body scintigraphic images were then produced 30 min and 2 hours post-injection. For this, the mice, anaesthetised with isoflurane gas, were imaged in the ventral decubitus position on a gamma-camera (γ Imager, BIOSPACE Mesures) with IRIS software (Ariès Nucléaire, France) with the following parameters: • Spectral window: 121-164 KeV • Acquisition time: 3 min • Grid: 256*256
For all the images, a region of interest was plotted around the tumour and another of the same size was defined on the muscle of the contralateral paw to determine the tumour-to-muscle ratio.
The study was conducted according to the protocol described in example 30, 1) above with other complexes having formula (II).

NCCCNCCCCNCCCNC(=O)c1ccc(N[NH][Tc]234([O]CC(CO)(CO)[N]2CC(=O)[O]3)[O]C(=O)C[N]4C(CO)(CO)CO)nc1
Risk of renal toxicity or side-effects due to dosimetry [1]: no risk of renal toxicity or side-effects due to dosimetry
Effect of spermine on incorporation of the complex [2]: partially inhibits
Proportion of injected complex eliminated ([3]; at 30 minutes after intravenous injection, healthy male C57BL/6 mice): 38%
Trans-chelation of Technetium on plasma albumin ([3]; from 30 minutes after intravenous injection, exclusion-diffusion radio-HPLC): trans-chelated on the plasma albumin
Complex stability in plasma ([3]; reverse-phase radio-HPLC of serum, 30 minutes to 5 hours post-injection): good complex stability
Effect of spermine on incorporation of the complex [4]: partially inhibits
Distribution in organs [5]: distributed quasi-homogeneously throughout the organs
Persistence of fixation [5]: only persists in the liver and kidneys
Observations ([6]; B16/F10 tumour in C57BL/6 mice): Tumour fixation

NCCCCNCCCNC(=O)c1ccc(NN)nc1 (as salt: hydrochloride) [Example 6, N-[3-(4-amino-butylamino)-propyl]-6-hydrazino-nicotinamide]
melting point: 183 °C

NCCCNCCCCNCCCNC(=O)c1ccc(NNC(=O)C(F)(F)F)nc1 (as salt: hydrochloride) [Example 14, N-{3-[4-(3-amino-propylamino)-butylamino]-propyl}-6-[N′-(2,2,2-trifluoro-acetyl)-hydrazino]-nicotinamide]
melting point: 237.5 °C

NCCCCNC(=O)c1ccc(NN)nc1 [Example 3, N-(4-Amino-butyl)-6-hydrazino-nicotinamide]
Tumour-to-muscle ratio compared with the other compounds [6]: lower than with the other compounds

NCCCCNCCCNC(=O)c1ccc(NN)nc1 [Example 6, N-[3-(4-amino-butylamino)-propyl]-6-hydrazino-nicotinamide]
Tumour-to-muscle ratio compared with the other compounds [6]: lower than with the other compounds
